Measured values: article PMC7391767, “Molecular mechanisms underlying menthol binding and activation of TRPM8 ion channel” (Nature Communications, 2020)
pKd: −log10 of the molar value. Values joined by “and” are separate entries in the source; they are usually repeats but may differ in a detail not shown here. Equal entries are not always repeated. Where two headings read alike, the source gives them in different places.

Columns and labels:
Type in all cases: cell-based
[1] = molecular target: T1, TRPM8 L843I (Mus musculus, UniProt Q8R4D5, L843I); test: whole-cell patch-clamp and thermodynamic mutant cycle analysis
T1 construct: expressed in transfected cells; host or cells: HEK293T
Procedure: (§1) Murine TRPM8 was used in this study. Point mutations were made by Fast Mutagenesis Kit V2 (SBS Genetech). Primers used to generate point mutations are summarized in Supplementary Table 2. All mutations were confirmed by sequencing.
(§2) HEK293T cells purchased from Kunming Cell Bank, Kunming Institute of Zoology, Chinese Academy of Sciences (ATCC, CRL-3216) were cultured in Dulbecco’s modified Eagle’s medium supplemented with 20 mM L-glutamine and 10% fetal bovine serum. Cells were transiently transfected with cDNA constructs by Lipofectamine 3000 (Life Technologies) following the manufacturer’s protocol. Patch-clamp recordings were performed 1–2 days after transfection.
(§3) Patch-clamp recordings were performed with a HEKA EPC10 amplifier controlled by PatchMaster software (HEKA). Whole-cell recordings were performed at ±80 mV. Patch pipettes were prepared from borosilicate glass and fire-polished to resistance of ~4 MΩ. For whole-cell recording, serial resistance was compensated by 60%. For single-channel recordings, patch pipettes were fire-polished to a higher resistance of 6-to-10 MΩ and then recorded in the inside-out configuration. To maximize the chance of obtaining a patch with only one channel, single-channel recordings were performed about 8 h after transfection. A solution with 130 mM NaCl, 10 mM glucose, 0.2 mM EDTA, and 3 mM HEPES (pH 7.2) was used in both bath and pipette for either whole-cell or single-channel recordings. Membrane potential was clamped at +80 mV for single-channel recordings. Current was sampled at 10 kHz and filtered at 2.9 kHz. All recordings were performed at room temperature (22 °C) with the maximum variation of 1 °C.
(§4) Ligands such as menthol and its analogs were perfused to membrane patch by a gravity-driven system (RSC-200, Bio-Logic). Bath and ligand solution were delivered through separate tubes to minimize the mixing of solutions. Patch pipette was placed in front of the perfusion tube outlet.
(§5) Data from whole-cell recordings were analyzed in Igor Pro version 6.1 (WaveMatrix). EC50 values were derived from fitting a Hill equation to the concentration–response relationship. Changes in EC50 by point mutation may be caused by either perturbation of ligand bind or channel gating or both. To distinguish these possibilities, dissociation constant (Kd) for ligand binding was estimated assuming the following gating scheme:1 C0↔KdC1↔LO, where L is the equilibrium constant for the final closed-to-open transition.
(§6) To perform thermodynamic cycle analysis, Kd values of four channel-ligand combinations (WT channel, menthol: Kd _1; Mutant channel, menthol: Kd _2; WT channel, menthol analog: Kd _3; Mutant channel, menthol analog: Kd _4) were determined separately. The strength of coupling was determined by the coupling energy (kT multiplied by LnΩ, where k is the Boltzmann constant and T is temperature in Kelvin). LnΩ was calculated by Eq. (2) as[51]2 LnΩ=LnKd_1⋅Kd_4/Kd_2⋅Kd_3.

[2] = molecular target: T2, TRPM8 Y745F (Mus musculus, UniProt Q8R4D5, Y745F); test: as above
T2 construct: expressed in transfected cells; host or cells: HEK293T
Procedure: as §1, §2, §3, §4, §5, §6

[3] = molecular target: T3, TRPM8 L843V (Mus musculus, UniProt Q8R4D5, L843V); test: as above
T3 construct: expressed in transfected cells; host or cells: HEK293T
Procedure: as §1, §2, §3, §4, §5, §6

[4] = molecular target: T4, TRPM8 F839A (Mus musculus, UniProt Q8R4D5, F839A); test: as above
T4 construct: expressed in transfected cells; host or cells: HEK293T
Procedure: as §1, §2, §3, §4, §5, §6

[5] = molecular target: T5, TRPM8 L843A (Mus musculus, UniProt Q8R4D5, L843A); test: as above
T5 construct: expressed in transfected cells; host or cells: HEK293T
Procedure: as §1, §2, §3, §4, §5, §6

[6] = molecular target: T6, TRPM8 I846V (Mus musculus, UniProt Q8R4D5, I846V); test: as above
T6 construct: expressed in transfected cells; host or cells: HEK293T
Procedure: as §1, §2, §3, §4, §5, §6

[7] = molecular target: T7, TRPM8 V775A (Mus musculus, UniProt Q8R4D5, V775A); test: as above
T7 construct: expressed in transfected cells; host or cells: HEK293T
Procedure: as §1, §2, §3, §4, §5, §6

[8] = molecular target: T8, wild-type TRPM8 (Mus musculus, UniProt Q8R4D5); test: whole-cell patch-clamp recording of ligand activation; details: WT
T8 construct: expressed in transfected cells; host or cells: HEK293T
Procedure: Murine TRPM8 was used in this study. Point mutations were made by Fast Mutagenesis Kit V2 (SBS Genetech). Primers used to generate point mutations are summarized in Supplementary Table 2.
Cells were transiently transfected with cDNA constructs by Lipofectamine 3000 (Life Technologies) following the manufacturer’s protocol. Patch-clamp recordings were performed 1–2 days after transfection.
as §3, §4
as §5, with “Changes in EC50 by point mutation may be caused by either perturbation of ligand bind or channel gating or both.” left out

[9] = molecular target: T8, wild-type TRPM8; test: open probability from noise analysis of macroscopic current and single-channel recordings; details: wild-type TRPM8; near saturating concentration (menthol 500 µM)
Procedure: as §3
From single-channel recordings, the open probability (Po) was calculated after events detection with a hidden Markov approach in the software QuB[49] (http://www.qub.buffalo.edu/). A dead time of 0.32 ms was imposed. As a complementary approach, Po was also estimated from noise analysis[52] of whole-cell recordings. Briefly, the mean current amplitude (I), the squared deviations in current amplitude from the mean value (σ^2), and the single-channel current (i) were measured experimentally from a membrane patch of ion channels. Then the number of ion channels clamped in that patch (N) was determined as3 N=I^2/i⋅I−σ^2.
The maximum current when each of ion channel is at the open state with a Po of 1 is equal to i × N. Then the open probability was calculated as the ratio between the measured macroscopic current and the maximum current calculated by noise analysis. To estimate channel conductance, current amplitude was estimated from all-point histogram of single-channel recordings.

[10] = mutant cycle menthol vs labelled analog

T2 sequence (Q8R4D5 whole entry Y745F): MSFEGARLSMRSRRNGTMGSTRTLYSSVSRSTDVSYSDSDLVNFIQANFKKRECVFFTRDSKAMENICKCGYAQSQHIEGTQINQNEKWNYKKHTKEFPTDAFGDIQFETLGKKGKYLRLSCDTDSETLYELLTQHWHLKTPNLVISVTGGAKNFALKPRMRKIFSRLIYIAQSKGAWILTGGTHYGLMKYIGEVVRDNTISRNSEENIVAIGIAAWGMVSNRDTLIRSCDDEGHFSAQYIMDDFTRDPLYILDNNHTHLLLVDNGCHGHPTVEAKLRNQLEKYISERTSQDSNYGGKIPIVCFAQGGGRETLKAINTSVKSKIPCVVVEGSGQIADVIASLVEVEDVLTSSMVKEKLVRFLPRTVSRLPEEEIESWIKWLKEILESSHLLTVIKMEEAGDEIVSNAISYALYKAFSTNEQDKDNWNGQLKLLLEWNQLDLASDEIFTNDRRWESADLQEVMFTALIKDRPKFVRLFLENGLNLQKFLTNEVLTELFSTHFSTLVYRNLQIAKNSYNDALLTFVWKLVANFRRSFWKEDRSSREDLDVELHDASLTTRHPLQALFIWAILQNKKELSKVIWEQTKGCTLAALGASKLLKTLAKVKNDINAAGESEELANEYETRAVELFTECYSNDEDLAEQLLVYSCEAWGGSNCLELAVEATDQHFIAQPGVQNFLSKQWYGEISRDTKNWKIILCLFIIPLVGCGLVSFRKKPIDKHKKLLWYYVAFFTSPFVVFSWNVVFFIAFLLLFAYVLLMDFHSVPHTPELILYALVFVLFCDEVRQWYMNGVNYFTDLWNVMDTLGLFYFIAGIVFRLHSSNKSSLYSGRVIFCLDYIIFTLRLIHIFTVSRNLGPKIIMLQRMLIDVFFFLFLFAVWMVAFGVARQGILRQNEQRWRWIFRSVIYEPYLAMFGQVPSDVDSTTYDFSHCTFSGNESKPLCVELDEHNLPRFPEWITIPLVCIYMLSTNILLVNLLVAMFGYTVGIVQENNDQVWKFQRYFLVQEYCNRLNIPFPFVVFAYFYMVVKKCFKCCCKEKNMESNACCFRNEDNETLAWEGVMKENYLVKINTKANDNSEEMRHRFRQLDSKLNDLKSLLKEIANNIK
T1 sequence (Q8R4D5 whole entry L843I): as the sequence (Q8R4D5 whole entry Y745F) above, with F745Y, L843I counted along it
T6 sequence (Q8R4D5 whole entry I846V): as the sequence (Q8R4D5 whole entry Y745F) above, with F745Y, I846V counted along it
T5 sequence (Q8R4D5 whole entry L843A): as the sequence (Q8R4D5 whole entry Y745F) above, with F745Y, L843A counted along it
T3 sequence (Q8R4D5 whole entry L843V): as the sequence (Q8R4D5 whole entry Y745F) above, with F745Y, L843V counted along it
T8 sequence (Q8R4D5 whole entry): as the sequence (Q8R4D5 whole entry Y745F) above, with F745Y counted along it
T4 sequence (Q8R4D5 whole entry F839A): as the sequence (Q8R4D5 whole entry Y745F) above, with F745Y, F839A counted along it
T7 sequence (Q8R4D5 whole entry V775A): as the sequence (Q8R4D5 whole entry Y745F) above, with F745Y, V775A counted along it

Ratio X2 (Kd menthol / Kd labelled analog) [1]: 0.32 | Omega(X1/X2) ([1]; menthol vs labelled analog): 4.84 | Coupling Energy [1, 10]: 1.58 kT | Ratio X2 (Kd menthol / Kd labelled analog) [2]: 5.57 | Omega(X1/X2) ([2]; menthol vs labelled analog): 0.28 | Coupling Energy [2, 10]: 1.29 kT | Ratio X2 (Kd menthol / Kd labelled analog) [3]: 1.21 | Omega(X1/X2) ([3]; menthol vs labelled analog): 1.27 | Coupling Energy [3, 10]: 0.24 kT | Ratio X2 (Kd menthol / Kd labelled analog) [4]: 0.34 | Omega(X1/X2) ([4]; menthol vs labelled analog): 4.45 | Coupling Energy [4, 10]: 1.49 kT | Ratio X2 (Kd menthol / Kd labelled analog) [5]: 10.91 | Omega(X1/X2) ([5]; menthol vs labelled analog): 0.14 | Coupling Energy [5, 10]: 1.96 kT | L (equilibrium constant between closed and open states upon ligand binding), Ave [6]: 5.486 | Ratio X2 (Kd menthol / Kd labelled analog) [6]: 0.0226 | concentration–response curve value, ave ([6]; 100 microM): 0.2999 | concentration–response curve value, single recording ([6]; 100 microM): 0.4 and 0.341 and 0.2563 and 0.2026 | concentration–response curve value, ave ([6]; 500 microM): 0.4287 | concentration–response curve value, single recording ([6]; 500 microM): 0.5097 and 0.4021 and 0.4664 and 0.3363 | concentration–response curve value, ave ([6]; 5000 microM): 0.6797 | concentration–response curve value, single recording ([6]; 5000 microM): 0.6614 and 0.7654 and 0.6405 and 0.6515 | concentration–response curve value, ave ([6]; 10000 microM): 0.686 | concentration–response curve value, single recording ([6]; 10000 microM): 0.6689 and 0.7334 and 0.6291 and 0.7125 | pKd ([6]; calculated from concentration–response curves, read-out: Kd, Ave): 2.28 | concentration–response curve value, ave ([6]; concentration cell empty): 0.07916 | Omega(X1/X2) ([6]; menthol vs labelled analog): 67.65 | Coupling Energy [6, 10]: 4.21 kT | pKd ([6]; read-out: Kd, single recording): 2.34 and 2.80 and 2.58 and 1.91 | Ratio X2 (Kd menthol / Kd labelled analog) [7]: 3.60 | Omega(X1/X2) ([7]; menthol vs labelled analog): 0.43 | Coupling Energy [7, 10]: 0.86 kT | L (equilibrium constant between closed and open states upon ligand binding), Ave [8]: 0.1737 | L, single recording [8]: 0.1532 and 0.192 and 0.1757 | Ratio X1 (Kd menthol / Kd labelled analog) [8]: 1.53 | concentration–response curve value, ave ([8]; 100 microM): 0.03758 | concentration–response curve value, single recording ([8]; 100 microM): 0.03758 | concentration–response curve value, ave ([8]; 500 microM): 0.06444 | concentration–response curve value, single recording ([8]; 500 microM): 0.0748 and 0.0637 and 0.05481 | concentration–response curve value, ave ([8]; 1000 microM): 0.104 | concentration–response curve value, single recording ([8]; 1000 microM): 0.09939 and 0.1207 and 0.09185 | concentration–response curve value, ave ([8]; 5000 microM): 0.1359 | concentration–response curve value, single recording ([8]; 5000 microM): 0.1092 and 0.1503 and 0.1483 | concentration–response curve value, ave ([8]; 10000 microM): 0.1449 | concentration–response curve value, single recording ([8]; 10000 microM): 0.1156 and 0.169 and 0.1502 | pKd ([8]; calculated from concentration–response curves (EC50 and Po max), read-out: Kd, Ave): 3.20 | pKd ([8]; read-out: Kd, single recording): 3.57 and 3.14 and 3.05 | maximum open probability (Po max) [9]: much reduced
SMILES: CC1CCCC(O)C1 (stereo not shown) [3-methylcyclohexanol]
